Patent US6136823A, “Pyridonecarboxylic acid derivatives or salts thereof and drugs containing the same as the active ingredient” (Wakunaga Pharmaceutical Co., Ltd., priority 1996, dated 2000)
In brackets after ≈: the same amount, converted by molar mass. Read-outs that look alike come from different tables or passages of the source.

Legend:
[1] = tested on: S. aureus 209P; assay: Antibacterial action, MIC against standard strain S. aureus 209P (standard method of the Japan Chemotherapeutic Association); format: cell-based; conditions: Staphylococcus aureus, read-out: MIC S.a.
Protocol: (§1) The minimum inhibitory concentrations (MIC; μg/ml) of specimen compounds against standard strains [S. aureus 209P (S.a.), S. epidermidis IFO 12293 (S.e.) and P. aeruginosa IFO 3445 (P.a.)] were determined in accordance with the standard method (CHEMOTHERAPY, 29(1), 76, 1981) prescribed by The Japan Chemotherapeutic Association.

[2] = tested on: S. epidermidis IFO 12293; assay: Antibacterial action, MIC against standard strain S. epidermidis IFO 12293; format: cell-based; conditions: Staphylococcus epidermidis
Protocol: as §1

[3] = tested on: P. aeruginosa IFO 3445; assay: Antibacterial action, MIC against standard strain P. aeruginosa IFO 3445; format: cell-based; conditions: Pseudomonas aeruginosa
Protocol: as §1

[4] = Urinary recovery rate upon oral administration to rats; format: in vivo, male SD rats; conditions: urine, rat, 20 mg/kg or 10 mg/kg, paper disk method; for dose excreted at 6 h: 0-6 hours; for dose excreted at 24 h: 6-24 hours
Protocol: (§2) The recovery rates in both urine and bile of compounds according to the present invention upon oral administration to rats were determined to evaluate their absorbability and excretory behavior. (a) Urinary Recovery Rate Male SD rats aged 6 weeks fasted overnight were forced to orally administer a 0.5% methyl cellulose suspension (20 mg/10 ml/kg or 10 mg/10 ml/kg) of each of specimen compounds using a peroral sound. Urine was collected twice in the course of from 0 up to 6 hours and from 6 up to 24 hours after the administration. The concentration of the specimen compound in the urine was determined by a paper disk method using Bacillus subtilis ATCC 6633 as a tester strain to find its recovery rate in urine.

[5] = Biliary recovery rate upon oral administration to rats; format: in vivo, male SD rats; conditions: bile, rat, 20 mg/kg or 10 mg/kg, 0-24 hours, after hydrolysis with the alkali
Protocol: (§3) The recovery rates in both urine and bile of compounds according to the present invention upon oral administration to rats were determined to evaluate their absorbability and excretory behavior.
(2) Biliary Recovery Rate
(§4) A polyethylene tube was inserted into the common bile ducts of male SD rats aged 6 weeks fasted overnight under etherization. After the anesthetic wore away, the rats were forced to orally administer each of the specimen compounds in the same manner as in the item (a) to collect bile till 24 hours after the administration. The concentration of the specimen compound in the bile was determined in the same manner as in the item (a) after hydrolysis with an alkali (0.1N, NaOH, 37° C., 1 hour) or without being subjected to any treatment, thereby finding its recovery rate in bile.

[6] = Total recovery rate in urine and bile upon oral administration to rats; format: in vivo, male SD rats; conditions: rat, 20 mg/kg or 10 mg/kg, urine plus bile, 0-24 hours
Protocol: as §3
as §2, with “Male” for “The recovery rates in both urine and bile of compounds according to the present invention upon oral administration to rats were determined to evaluate their absorbability and excretory behavior. (a) Urinary Recovery Rate Male”
as §4

[7] = IFO12293, S. epidermidis IFO 12293, read-out: MIC S.e.
[8] = IFO3445, P. aeruginosa IFO 3445, read-out: MIC P.a.

| Compound | MIC ([1]; 209P) | MIC ([2]; IFO12293, read-out: MIC S.e.) | MIC ([3]; IFO3445, read-out: MIC P.a.) | MIC ([1]; S. aureus 209P) | MIC [2, 7] | MIC [3, 8] | dose excreted at 6 h [4] | dose excreted at 24 h [4] | dose excreted at 24 h [5] | dose excreted at 24 h [6] |
| --- | --- | --- | --- | --- | --- | --- | --- | --- | --- | --- |
| O=C(O)c1cn(C2CC2)c2cc(N3CCNCC3)c(F)cc2c1=O [Cyprofloxacin, reference compound] | 0.1 µg/mL (≈ 0.302 µM) | 0.78 µg/mL (≈ 2.35 µM) | 0.39 µg/mL (≈ 1.18 µM) | – | – | – | – | – | – | – |
| Nc1cc(-n2cc(C(=O)O)c(=O)c3cc(F)c(N)c(Cl)c32)c(F)cc1F [Example 11, 7-Amino-1-(5-amino-2,4-difluorophenyl)-8-chloro-6-fluoro-4-oxo-1,4-dihydroquinoline-3-carboxylic Acid] | – | – | – | 0.013 µg/mL (≈ 0.0339 µM) | 0.05 µg/mL (≈ 0.13 µM) | 0.2 µg/mL (≈ 0.521 µM) | 9.7% | 13.7% | 90% | 113% |
| Cc1c(N)c(F)cc2c(=O)c(C(=O)O)cn(-c3cc(N)c(F)cc3F)c12 [Example 12, 7-Amino-1-(5-amino-2,4-difluorophenyl)-6-fluoro-8-methyl-4-oxo-1,4-dihydroquinoline-3-carboxylic Acid] | – | – | – | 0.013 µg/mL (≈ 0.0358 µM) | 0.05 µg/mL (≈ 0.138 µM) | 0.1 µg/mL (≈ 0.275 µM) | 4.8% | 10.8% | 81.7% | 97.3% |
| CNc1c(F)cc2c(=O)c(C(=O)O)cn(-c3cc(N)c(F)cc3F)c2c1Cl [Example 14, 1-(5-Amino-2,4-difluorophenyl)-8-chloro-6-fluoro-7-methylamino-4-oxo-1,4-dihydroquinoline-3-carboxylic Acid] | – | – | – | 0.013 µg/mL (≈ 0.0327 µM) | 0.025 µg/mL (≈ 0.0629 µM) | 0.2 µg/mL (≈ 0.503 µM) | 1.2% | 2.6% | 103% | 107% |
| CNc1c(F)cc2c(=O)c(C(=O)O)cn(-c3cc(N)c(F)cc3F)c2c1C [Example 16, 1-(5-Amino-2,4-difluorophenyl)-6-fluoro-8-methyl-7-methylamino-4-oxo-1,4-dihydroquinoline-3-carboxylic Acid] | – | – | – | 0.013 µg/mL (≈ 0.0345 µM) | 0.05 µg/mL (≈ 0.133 µM) | 0.39 µg/mL (≈ 1.03 µM) | – | – | – | – |
| CNc1c(F)cc2c(=O)c(C(=O)O)cn(-c3cc(N)c(F)cc3Cl)c2c1Cl [Example 19, 1-(5-Amino-2-chloro-4-fluorophenyl)-8-chloro-6-fluoro-7-methylamino-4-oxo-1,4-dihydroquinoline-3-carboxylic Acid] | – | – | – | 0.013 µg/mL (≈ 0.0314 µM) | 0.05 µg/mL (≈ 0.121 µM) | 0.39 µg/mL (≈ 0.942 µM) | – | – | – | – |
| CNc1c(F)cc2c(=O)c(C(=O)O)cn(-c3nc(N)c(F)cc3F)c2c1Cl [Example 28, 1-(6-Amino-3,5-difluoropyridin-2-yl)-8-chloro-6-fluoro-7-methylamino-4-oxo-1,4-dihydroquinoline-3-carboxylic Acid] | – | – | – | 0.006 µg/mL (≈ 0.015 µM) | 0.025 µg/mL (≈ 0.0627 µM) | 0.39 µg/mL (≈ 0.978 µM) | – | – | – | – |
| CNc1c(F)cc2c(=O)c(C(=O)O)cn(-c3nc(N)c(F)cc3F)c2c1Br [Example 30, 1-(6-Amino-3,5-difluoropyridin-2-yl)-8-bromo-6-fluoro-7-methylamino-4-oxo-1,4-dihydroquinoline-3-carboxylic Acid] | – | – | – | 0.006 µg/mL (≈ 0.0135 µM) | 0.025 µg/mL (≈ 0.0564 µM) | 0.78 µg/mL (≈ 1.76 µM) | – | – | – | – |
| CNc1c(F)c(C)c2c(=O)c(C(=O)O)cn(-c3cc(N)c(F)cc3F)c2c1Cl [Example 56, 1-(5-Amino-2,4-difluorophenyl)-8-chloro-6-fluoro-5-methyl-7-methylamino-4-oxo-1,4-dihydroquinoline-3-carboxylic Acid] | – | – | – | 0.006 µg/mL (≈ 0.0146 µM) | 0.013 µg/mL (≈ 0.0316 µM) | 0.2 µg/mL (≈ 0.486 µM) | – | – | – | – |
| CNc1c(F)c(C)c2c(=O)c(C(=O)O)cn(-c3cc(N)c(F)cc3F)c2c1C [Example 59, 1-(5-Amino-2,4-difluorophenyl)-6-fluoro-5,8-dimethyl-7-methylamino-4-oxo-1,4-dihydroquinoline-3-carboxylic Acid] | – | – | – | 0.006 µg/mL (≈ 0.0153 µM) | 0.013 µg/mL (≈ 0.0332 µM) | 0.39 µg/mL (≈ 0.997 µM) | – | – | – | – |
| CNc1c(F)c(N)c2c(=O)c(C(=O)O)cn(-c3cc(N)c(F)cc3F)c2c1Cl [Example 70, 5-Amino-1-(5-amino-2,4-difluorophenyl)-8-chloro-6-fluoro-7-methylamino-4-oxo-1,4-dihydroquinoline-3-carboxylic Acid] | – | – | – | 0.013 µg/mL (≈ 0.0315 µM) | 0.025 µg/mL (≈ 0.0606 µM) | 0.2 µg/mL (≈ 0.485 µM) | – | – | – | – |
| C=CCNc1c(F)cc2c(=O)c(C(=O)O)cn(-c3nc(N)c(F)cc3F)c2c1Cl [Example 77, 7-Allylamino-1-(6-amino-3,5-difluoropyridin-2-yl)-8-chloro-6-fluoro-4-oxo-1,4-dihydroquinoline-3-carboxylic Acid] | – | – | – | 0.013 µg/mL (≈ 0.0306 µM) | 0.013 µg/mL (≈ 0.0306 µM) | 0.39 µg/mL (≈ 0.918 µM) | – | – | – | – |
| Cc1c(NCCCO)c(F)cc2c(=O)c(C(=O)O)cn(-c3cc(N)c(F)cc3F)c12 [Example 88, 1-(5-Amino-2,4-difluorophenyl)-8-methyl-6-fluoro-7-(3-hydroxy-n-propylamino)-4-oxo-1,4-dihydroquinoline-3-carboxylic Acid] | – | – | – | 0.013 µg/mL (≈ 0.0309 µM) | 0.025 µg/mL (≈ 0.0593 µM) | 0.78 µg/mL (≈ 1.85 µM) | – | – | – | – |
| CNc1c(F)c(O)c2c(=O)c(C(=O)O)cn(-c3cc(N)c(F)cc3F)c2c1C [Example 98, 1-(5-Amino-2,4-difluorophenyl)-6-fluoro-5-hydroxy-8-methyl-7-methylamino-4-oxo-1,4-dihydroquinoline-3-carboxylic Acid] | – | – | – | 0.013 µg/mL (≈ 0.0331 µM) | 0.013 µg/mL (≈ 0.0331 µM) | 0.39 µg/mL (≈ 0.992 µM) | – | – | – | – |
| COc1c(F)cc2c(=O)c(C(=O)O)cn(-c3cc(N)c(F)cc3F)c2c1C [Example 99, 1-(5-Amino-2,4-difluorophenyl)-6-fluoro-7-methoxy-8-methyl-4-oxo-1,4-dihydroquinoline-3-carboxylic Acid] | – | – | – | 0.013 µg/mL (≈ 0.0344 µM) | 0.05 µg/mL (≈ 0.132 µM) | 0.78 µg/mL (≈ 2.06 µM) | – | – | – | – |
| C[C@H]1COc2c(N3CCN(C)CC3)c(F)cc3c(=O)c(C(=O)O)cn1c23 [Levofloxacin, reference compound] | – | – | – | 0.2 µg/mL (≈ 0.553 µM) | 0.39 µg/mL (≈ 1.08 µM) | 0.78 µg/mL (≈ 2.16 µM) | 21.2% | 13.7% | 48.3% | 83.2% |
| Nc1cc(-n2cc(C(=O)O)c(=O)c3cc(F)c(N4CC(N)C4)c(Cl)c32)c(F)cc1F [Referential compound, 7(3-Aminoazetidin-1-yl)-1-(5-amino-2,4-difluoro-phenyl)-8-chloro-6-fluoo-4-oxo-1,4-dihydroquinoline-3-carboxylic acid, reference compound] | – | – | – | – | – | – | 7.6% | 2.7% | 11.1% | 21.5% |
| C[C@@H]1CN(c2c(F)c(N)c3c(=O)c(C(=O)O)cn(C4CC4)c3c2F)C[C@H](C)N1 [Sparfloxacin, reference compound] | – | – | – | 0.05 µg/mL (≈ 0.127 µM) | 0.2 µg/mL (≈ 0.51 µM) | 0.78 µg/mL (≈ 1.99 µM) | – | – | – | – |
| NC1CCN(c2nc3c(cc2F)c(=O)c(C(=O)O)cn3-c2ccc(F)cc2F)C1 (stereo not drawn) [Tosufloxacin, reference compound] | – | – | – | 0.05 µg/mL (≈ 0.124 µM) | 0.2 µg/mL (≈ 0.495 µM) | 0.39 µg/mL (≈ 0.965 µM) | 19% | 12.3% | 9.2% | 40.5% |
